Activity calls are given as the source filed them. The calls are words filed in the database; no cut-off is given here.
The molecules below were run against T1, Antrax lethal toxin (Bacillus anthracis) (UniProt P15917+P13423) (assay: Reversible inhibition of Bacillus anthracis lethal toxin-induced mouse RAW264.7 cell death at 25 uM preincubated for 1 hr followed by compound washout measured 4 hrs post lethal toxin challenge). Conditions: not given.
Assay type: protein-complex assay

Structure (SMILES) | inhibition
Cc1cccc(C)c1NC(=O)N/N=C/c1ccc(N=[N+]=[N-])cc1 | Active
Cc1cccc(C)c1NC(=O)N/N=C/c1c(F)c(F)c(N=[N+]=[N-])c(F)c1F | Active

These molecules were tested against T1, Antrax lethal toxin (Bacillus anthracis) (assay: Reversible inhibition of Bacillus anthracis lethal toxin-induced mouse RAW264.7 cell death at 12.5 uM preincubated for 1 hr followed by compound washout measured 4 hrs post lethal toxin challenge). Conditions: not given.
Assay type: protein-complex assay

Structure (SMILES) | inhibition
Cc1cccc(C)c1NC(=O)N/N=C/c1ccc(N=[N+]=[N-])cc1F | Active

These molecules were tested against T1, Antrax lethal toxin (Bacillus anthracis). Conditions: RAW264.7, at 25 µM.

Structure (SMILES) | inhibition
Cc1cccc(C)c1NC(=S)N/N=C/c1ccc(Br)cc1F | inactive
COc1cc(OC)c(/C=N/NC(=O)Nc2c(C)cccc2C)c(OC)c1 | inactive
COc1cccc(/C=N/NC(=O)Nc2c(C)cccc2C)c1OC | inactive
Cc1cccc(C)c1NC(=S)N/N=C/c1c(F)cc(Br)cc1F | inactive
Cc1cccc(C)c1NC(=O)N/N=C/c1ccc(NS(C)(=O)=O)cc1 | inactive
O=C(N/N=C/c1ccc(Cl)cc1)Nc1ccccc1 | inactive
Cc1ccc(NC(=O)N/N=C/c2ccc(Br)cc2)c(C)c1 | inactive
C#CCN(/N=C/c1ccc(N=[N+]=[N-])cc1)C(=O)Nc1c(C)cccc1C | inactive
CC(C)(C)NC(=O)N/N=C/c1ccc(Br)cc1 | inactive
Cc1cccc(C)c1NC(=O)N/N=C/c1ccco1 | inactive
Cc1ccccc1/C=N/NC(=O)Nc1c(C)cccc1C | inactive
Cc1cccc(C)c1NC(=O)N/N=C/c1cccc(C(F)(F)F)c1Cl | inactive
Cc1cccc(C)c1NC(=O)N/N=C/c1ccccc1 | inactive
Cc1cccc(C)c1NC(=O)N/N=C/c1ccncc1 | inactive
Cc1cccc(C)c1NC(=O)NN | inactive

What follows are molecules tested against T1, Antrax lethal toxin (Bacillus anthracis) (assay: Irreversible inhibition of Bacillus anthracis lethal toxin-induced mouse RAW264.7 cell death at 12.5 uM preincubated for 1 hr followed by UV irradiation measured after 5 mins). Conditions: not given.
Assay type: protein-complex assay

Structure (SMILES) | inhibition
Cc1cccc(C)c1NC(=O)N/N=C/c1ccc(N=[N+]=[N-])cc1F | inactive

The molecules below were run against T1, Antrax lethal toxin (Bacillus anthracis) (assay: Irreversible inhibition of Bacillus anthracis lethal toxin-induced mouse RAW264.7 cell death at 25 uM preincubated for 1 hr followed by UV irradiation measured after 5 mins). Conditions: not given.
Assay type: protein-complex assay

Structure (SMILES) | inhibition
Cc1cccc(C)c1NC(=O)N/N=C/c1ccc(N=[N+]=[N-])cc1 | Active
Cc1cccc(C)c1NC(=O)N/N=C/c1c(F)c(F)c(N=[N+]=[N-])c(F)c1F | Active

— ChEMBL document CHEMBL3259674, “Structure-Activity Relationship of Semicarbazone EGA Furnishes Photoaffinity Inhibitors of Anthrax Toxin Cellular Entry” (ACS Med Chem Lett, 2014)
